According to patent publication US7132546B2, “Aniline derivatives or salts thereof and cytokine production inhibitors containing the same” (Ishihara Sangyo Kaisha, Ltd., priority 2000, dated 2006):

Tests used:
[1] = system: interleukin 5 (IL-5) production; assay: Cytokine production inhibitory effect: IL-5 production by murine spleen cells treated with anti-mouse CD3 antibody and IL-2 (ELISA); format: cell-based, Balb/c mice; details: anti-CD3 antibody + IL-2, 40 to 48 hours, read-out: IL-5 production inhibitory ratio (%); for inhibition at 100 ppm: test compound 100 ppm
[2] = system: interferon γ (IFN-γ) production; assay: Cytokine production inhibitory effect: IFN-γ production by murine spleen cells treated with anti-mouse CD3 antibody and IL-2 (ELISA); format: cell-based, Balb/c mice; details: anti-CD3 antibody + IL-2, 40 to 48 hours, read-out: IFN-γ production inhibitory ratio (%); for inhibition at 100 ppm: test compound 100 ppm

**Q.** With O=C(Nc1ccc(Oc2ccc(C(F)(F)F)cn2)c(Cl)c1)c1ccc(C(F)(F)F)cc1 [compound 8] as the compound, how does the melting point read?
**A.** 154 to 155 °C

**Q.** And the inhibition at 10 ppm ([1]; test compound 10 ppm)?
**A.** 58%

**Q.** What about the inhibition at 10 ppm ([2]; test compound 10 ppm) of the same compound?
**A.** 67%

**Q.** Which melting point does the source give for O=C(Nc1cc(Cl)c(Oc2ncc(C(F)(F)F)cc2Cl)c(Cl)c1)c1cc([N+](=O)[O-])ccc1Cl [compound 112] here?
**A.** 189 to 191 °C

**Q.** What about the inhibition at 100 ppm [1] of the same compound?
**A.** 100%

**Q.** And the inhibition at 100 ppm [2]?
**A.** 100%

**Q.** With O=C(Nc1ccc(N2CCOCC2)cc1)c1cc([N+](=O)[O-])ccc1Cl [compound 66] as the compound, how does the melting point read?
**A.** 195 °C

**Q.** And the inhibition at 100 ppm [1]?
**A.** 95%

**Q.** What about the inhibition at 100 ppm [2] of the same compound?
**A.** 91%

**Q.** For O=C(NS(=O)(=O)c1ccc(NC(=O)c2cc([N+](=O)[O-])ccc2Cl)cc1)c1ccccc1 [compound 146], which melting point is on record?
**A.** 235 to 237 °C

**Q.** What about the inhibition at 100 ppm [1] of the same compound?
**A.** 62%

**Q.** And the inhibition at 100 ppm [2]?
**A.** 43%

**Q.** For O=C(Nc1ccc(Oc2ccc(C(F)(F)F)cn2)c(Cl)c1)c1cccc(C(F)(F)F)c1 [compound 7], which melting point is on record?
**A.** 127 to 129 °C

**Q.** And the inhibition at 100 ppm [1]?
**A.** 100%

**Q.** And the inhibition at 100 ppm [2]?
**A.** 100%

**Q.** Which melting point does the source give for CN(C)c1cc(NC(=O)c2cc([N+](=O)[O-])ccc2Cl)ccc1Oc1ncc(C(F)(F)F)cc1Cl [compound 128] here?
**A.** 208 to 213 °C

**Q.** What about the inhibition at 100 ppm [1] of the same compound?
**A.** 96%

**Q.** What about the inhibition at 100 ppm [2] of the same compound?
**A.** 93%

**Q.** With Cc1cc(C23CC4CC(CC(C4)C2)C3)ccc1NC(=O)c1ccc([N+](=O)[O-])cc1 [compound 74] as the compound, how does the melting point read?
**A.** 289 to 290 °C

**Q.** What about the inhibition at 100 ppm [1] of the same compound?
**A.** 43%

**Q.** What about the inhibition at 100 ppm [2] of the same compound?
**A.** 10%

**Q.** Which results are given for NC(=O)c1cc(NC(=O)c2cc([N+](=O)[O-])ccc2Cl)ccc1Oc1ncc(C(F)(F)F)cc1Cl [compound 116]?
**A.** melting point: 239 to 244 °C; inhibition at 100 ppm [1]: 100%; inhibition at 100 ppm [2]: 99%

**Q.** With O=C(Nc1ccc(S(=O)(=O)Nc2ccccn2)cc1)c1cc([N+](=O)[O-])ccc1Cl [compound 136] as the compound, how does the melting point read?
**A.** 178 to 181 °C

**Q.** And the inhibition at 100 ppm [1]?
**A.** 98%

**Q.** What about the inhibition at 100 ppm [2] of the same compound?
**A.** 100%

**Q.** Which melting point does the source give for COc1ccc(C(=O)Nc2ccc(Oc3ccc(C(F)(F)F)cn3)c(Cl)c2)cc1OC [compound 9] here?
**A.** 152 to 154 °C

**Q.** What about the inhibition at 100 ppm [1] of the same compound?
**A.** 96%

**Q.** What about the inhibition at 100 ppm [2] of the same compound?
**A.** 100%

**Q.** Which melting point does the source give for Cc1cc(C23CC4CC(CC(C4)C2)C3)ccc1NC(=O)c1ccc(Cl)c([N+](=O)[O-])c1 [compound 62] here?
**A.** 111 °C

**Q.** What about the inhibition at 100 ppm [1] of the same compound?
**A.** 100%

**Q.** And the inhibition at 100 ppm [2]?
**A.** 100%

**Q.** With Cc1cc(C23CC4CC(CC(C4)C2)C3)ccc1NS(=O)(=O)c1ccccc1Cl [compound 25] as the compound, how does the melting point read?
**A.** 200 °C

**Q.** And the inhibition at 100 ppm [1]?
**A.** 89%

**Q.** What about the inhibition at 100 ppm [2] of the same compound?
**A.** 93%

**Q.** What does the source list for O=C(Nc1ccc(Cc2ccccc2)cc1)c1cc([N+](=O)[O-])ccc1O [compound 18]?
**A.** melting point: 211.5 to 214.4 °C; inhibition at 100 ppm [1]: 100%; inhibition at 100 ppm [2]: 100%

**Q.** What does the source list for Cc1cc(C23CC4CC(CC(C4)C2)C3)ccc1NC(=O)c1cccc(C(=O)O)c1 [compound 35]?
**A.** melting point: 232 °C; inhibition at 100 ppm [1]: 100%; inhibition at 100 ppm [2]: 100%

**Q.** Which melting point does the source give for O=C(Nc1ccc(CCOc2ncc(C(F)(F)F)cc2Cl)cc1)c1cc([N+](=O)[O-])ccc1Cl [compound 97] here?
**A.** 131 to 134 °C

**Q.** And the inhibition at 100 ppm [1]?
**A.** 77%

**Q.** And the inhibition at 100 ppm [2]?
**A.** 84%

**Q.** For O=C(Nc1ccc(OC23CC4CC(CC(C4)C2)C3)nc1)c1cc([N+](=O)[O-])ccc1Cl [Compound No. 123, N-(2-(1-adamantyloxy)-5-pyridyl)-2-chloro-5-nitrobenzamide], which melting point is on record?
**A.** 98 to 105 °C

**Q.** And the inhibition at 100 ppm [1]?
**A.** 100%

**Q.** And the inhibition at 100 ppm [2]?
**A.** 100%

**Q.** What does the source list for O=C(Nc1ccc(SCc2ccccc2)cc1)c1cc([N+](=O)[O-])ccc1Cl [compound 78]?
**A.** melting point: 156 to 157 °C; inhibition at 100 ppm [1]: 78%; inhibition at 100 ppm [2]: 91%

**Q.** What does the source list for O=C(Nc1ccc(C23CC4CC(CC(C4)C2)C3)cc1)c1cc([N+](=O)[O-])ccc1F [compound 93]?
**A.** melting point: 224 to 228 °C; inhibition at 100 ppm [1]: 100%; inhibition at 100 ppm [2]: 100%

**Q.** Which melting point does the source give for Cc1cc(C23CC4CC(CC(C4)C2)C3)ccc1NS(=O)(=O)c1cc([N+](=O)[O-])ccc1C [compound 44] here?
**A.** 241 °C

**Q.** What about the inhibition at 100 ppm [1] of the same compound?
**A.** 93%

**Q.** And the inhibition at 100 ppm [2]?
**A.** 100%

**Q.** Which melting point does the source give for COc1ccc([N+](=O)[O-])c(OC)c1C(=O)Nc1cc(Cl)cc(Cl)c1 [Compound No. 4] here?
**A.** 173 °C

**Q.** What about the inhibition at 100 ppm [1] of the same compound?
**A.** 47%

**Q.** What about the inhibition at 100 ppm [2] of the same compound?
**A.** 76%

**Q.** What does the source list for Cc1cc(C23CC4CC(CC(C4)C2)C3)ccc1NC(=O)c1cc([N+](=O)[O-])ccc1C [compound 36]?
**A.** melting point: 198 °C; inhibition at 100 ppm [1]: 81%; inhibition at 100 ppm [2]: 85%

**Q.** For Cc1cc(NC(=O)c2cc([N+](=O)[O-])ccc2F)ccc1Oc1ncc(C(F)(F)F)cc1Cl [compound 119], which melting point is on record?
**A.** 179 to 181 °C

**Q.** What about the inhibition at 100 ppm [1] of the same compound?
**A.** 100%

**Q.** What about the inhibition at 100 ppm [2] of the same compound?
**A.** 99%

**Q.** With Cc1cc(C23CC4CC(CC(C4)C2)C3)ccc1NC(=O)c1ccc([N+](=O)[O-])cc1Cl [compound 55] as the compound, how does the melting point read?
**A.** 200 °C

**Q.** And the inhibition at 100 ppm [1]?
**A.** 96%

**Q.** And the inhibition at 100 ppm [2]?
**A.** 100%

**Q.** What does the source list for Cc1cc(C23CC4CC(CC(C4)C2)C3)ccc1NC(=O)c1ccccc1 [compound 61]?
**A.** melting point: 198 °C; inhibition at 100 ppm [1]: 79%; inhibition at 100 ppm [2]: 89%

**Q.** With Cc1cc(C23CC4CC(CC(C4)C2)C3)ccc1NC(=O)c1ccccc1Cl [compound 22] as the compound, how does the melting point read?
**A.** 154 °C

**Q.** And the inhibition at 100 ppm [1]?
**A.** 100%

**Q.** What about the inhibition at 100 ppm [2] of the same compound?
**A.** 100%

**Q.** Which melting point does the source give for Cc1cc(C23CC4CC(CC(C4)C2)C3)ccc1NC(=O)c1c(Cl)ccc([N+](=O)[O-])c1Cl [compound 53] here?
**A.** 224 °C

**Q.** And the inhibition at 100 ppm [1]?
**A.** 94%

**Q.** What about the inhibition at 100 ppm [2] of the same compound?
**A.** 93%

**Q.** With O=[N+]([O-])c1ccc(Cl)c(S(=O)(=O)Nc2ccc(Oc3ccccc3)cc2)c1 [compound 49] as the compound, how does the melting point read?
**A.** 148 °C

**Q.** What about the inhibition at 100 ppm [1] of the same compound?
**A.** 100%

**Q.** What about the inhibition at 100 ppm [2] of the same compound?
**A.** 100%

**Q.** Which melting point does the source give for COc1ccc([N+](=O)[O-])c(OC)c1C(=O)Nc1ccc(C23CC4CC(CC(C4)C2)C3)cc1C [compound 52] here?
**A.** 115 °C

**Q.** What about the inhibition at 100 ppm [1] of the same compound?
**A.** 75%

**Q.** And the inhibition at 100 ppm [2]?
**A.** 96%

**Q.** For O=C(Nc1ccccc1Oc1ccccc1)c1cc([N+](=O)[O-])ccc1Cl [compound 37], which melting point is on record?
**A.** 110 °C

**Q.** And the inhibition at 100 ppm [1]?
**A.** 97%

**Q.** And the inhibition at 100 ppm [2]?
**A.** 100%

**Q.** With O=C(Nc1ccc(OCc2ccccc2)cc1)c1cc([N+](=O)[O-])ccc1Cl [compound 77] as the compound, how does the melting point read?
**A.** 176 to 178 °C

**Q.** And the inhibition at 100 ppm [1]?
**A.** 74%

**Q.** And the inhibition at 100 ppm [2]?
**A.** 50%

**Q.** For O=C(Nc1ccc(-c2ccccc2)cc1)c1cc([N+](=O)[O-])ccc1Cl [compound 83], which melting point is on record?
**A.** 203 to 206 °C

**Q.** And the inhibition at 100 ppm [1]?
**A.** 90%

**Q.** And the inhibition at 100 ppm [2]?
**A.** 76%

**Q.** Which melting point does the source give for Cc1cc(Oc2ncc(C(F)(F)F)cc2Cl)c(C)cc1NC(=O)c1cc([N+](=O)[O-])ccc1Cl [compound 105] here?
**A.** 296 to 298 °C

**Q.** And the inhibition at 100 ppm [1]?
**A.** 55%

**Q.** What about the inhibition at 100 ppm [2] of the same compound?
**A.** 25%

**Q.** For Cc1ccc(S(=O)(=O)Nc2ccc(NC(=O)c3cc([N+](=O)[O-])ccc3Cl)cc2)cc1 [compound 145], which melting point is on record?
**A.** 165 to 172 °C

**Q.** What about the inhibition at 100 ppm [1] of the same compound?
**A.** 100%

**Q.** And the inhibition at 100 ppm [2]?
**A.** 100%

**Q.** Which melting point does the source give for Cc1ccc(NC(=O)c2cc([N+](=O)[O-])ccc2Cl)c(C)c1 [compound 26] here?
**A.** 206 °C

**Q.** What about the inhibition at 100 ppm [1] of the same compound?
**A.** 82%

**Q.** What about the inhibition at 100 ppm [2] of the same compound?
**A.** 30%

**Q.** Which melting point does the source give for N#Cc1cc(NC(=O)c2cc([N+](=O)[O-])ccc2Cl)ccc1Oc1ncc(C(F)(F)F)cc1Cl [compound 122] here?
**A.** 194 to 198 °C

**Q.** What about the inhibition at 100 ppm [1] of the same compound?
**A.** 100%

**Q.** What about the inhibition at 100 ppm [2] of the same compound?
**A.** 100%

**Q.** Which results are given for Cc1cc(C23CC4CC(CC(C4)C2)C3)ccc1NC(=O)c1cc([N+](=O)[O-])ccc1Cl [Compound No. 1]?
**A.** melting point: 219 °C; inhibition at 100 ppm [1]: 96%; inhibition at 100 ppm [2]: 90%
